Experimental findings from BindingDB's records for patent US11691969 (Ribon Therapeutics, 2023) are described below.

The experiment addresses T1, Protein mono-ADP-ribosyltransferase TIPARP (Homo sapiens, UniProt Q7Z3E1).
T1 sequence (Q7Z3E1 whole entry): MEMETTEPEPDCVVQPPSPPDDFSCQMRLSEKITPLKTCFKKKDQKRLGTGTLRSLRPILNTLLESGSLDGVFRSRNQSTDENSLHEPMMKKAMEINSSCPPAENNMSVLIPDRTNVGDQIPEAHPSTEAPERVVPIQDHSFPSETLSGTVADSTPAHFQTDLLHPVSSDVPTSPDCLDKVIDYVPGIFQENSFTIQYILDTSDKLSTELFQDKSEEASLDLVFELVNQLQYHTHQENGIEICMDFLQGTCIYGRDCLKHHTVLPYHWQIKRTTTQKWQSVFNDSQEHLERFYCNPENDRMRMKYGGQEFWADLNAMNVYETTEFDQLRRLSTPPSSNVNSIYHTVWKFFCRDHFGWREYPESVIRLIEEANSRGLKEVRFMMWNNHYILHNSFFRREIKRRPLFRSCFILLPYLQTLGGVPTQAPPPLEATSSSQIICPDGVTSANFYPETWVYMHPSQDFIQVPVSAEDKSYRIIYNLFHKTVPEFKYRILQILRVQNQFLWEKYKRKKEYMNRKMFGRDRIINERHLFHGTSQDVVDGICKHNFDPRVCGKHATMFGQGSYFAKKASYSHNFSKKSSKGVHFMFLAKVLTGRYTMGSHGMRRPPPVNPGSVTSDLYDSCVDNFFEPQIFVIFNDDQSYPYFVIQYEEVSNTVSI
Put plainly: Enzymatic Assay. The method, then:
Displacement of Probe A, a biotinylated probe binding to the TIPARP active site, was measured using a time-resolved fluorescence energy transfer (TR-FRET) assay. 20 nL of a dose response curve of each test compound was spotted in black 384-well polystyrene proxiplates (Perkin Elmer) using a Mosquito (TTP Labtech). Reactions were performed in a 8 μl volume by adding 6 μL of TIPARP and Probe A in assay buffer (20 mM HEPES pH=8, 100 mM NaCl, 0.1% bovine serum albumin, 2 mM DTT and 0.002% Tween20), incubating with test compound at 25° C. for 30 min, then adding 2 μL of ULight-anti 6×His and LANCE Eu-W1024 labeled streptavidin (Perkin Elmer). The final concentrations of TIPARP and Probe A were 6 nM and 2 nM, respectively. The final concentration of ULight-anti 6×His and LANCE Eu-W1024 labeled streptavidin were 4 nM and 0.25 nM, respectively. Reactions were incubated at 25° C. for an additional 30 min, then read on an Envision platereader equipped with a LANCE/DELFIA top mirror (Perkin Elmer) using excitation of 320 nm and emission of 615 nm and […] with a […]. The ratio of the 665/615 nm emission were calculated for each well to determine the amount of complex of TIPARP and Probe Ain each well. […]

One may read the IC50 as the midpoint of a concentration-inhibition curve. Low values mean greater potency in that assay, high ones weaker potency in that assay. Take `C[C@@H](CO[C@H]1CCN(C2CCN(c3ncc(C(F)(F)F)cn3)CC2)C1=O)Nc1cn[nH]c(=O)c1Br` [US11691969, Example 23]: the IC50 result is “in the range around 550 nM”.
